Laboratory results as given in PMC11420776 (RSC Advances, 2024).

Columns and labels:
M14 (melanoma) = test: NCI 60-cell one-dose antiproliferative screen; type: cell-based, human; details: one dose 10 μM
SF-539 (CNS cancer) = test: NCI 60-cell one-dose antiproliferative screen; type: cell-based, human; details: one dose 10 μM
CAKI-1 (renal cancer) = test: NCI 60-cell one-dose antiproliferative screen; type: cell-based, human; details: one dose 10 μM
HCC-2998 (colon cancer) = test: NCI 60-cell one-dose antiproliferative screen; type: cell-based, human; details: one dose 10 μM
OVCAR-5 (ovarian cancer) = test: NCI 60-cell one-dose antiproliferative screen; type: cell-based, human; details: one dose 10 μM
COLO-205 (colon cancer) = test: NCI 60-cell one-dose antiproliferative screen; type: cell-based, human; details: one dose 10 μM
MALME-3M (melanoma) = test: NCI 60-cell one-dose antiproliferative screen; type: cell-based, human; details: one dose 10 μM
MCF7 (breast cancer) = test: NCI 60-cell one-dose antiproliferative screen; type: cell-based, human; details: one dose 10 μM
[1] = tested on: A549/ATCC (NSC lung cancer); test: NCI 60-cell one-dose antiproliferative screen; type: cell-based, human; details: one dose 10 μM
KM12 (colon cancer) = test: NCI 60-cell one-dose antiproliferative screen; type: cell-based, human; details: one dose 10 μM
OVCAR-4 (ovarian cancer) = test: NCI 60-cell one-dose antiproliferative screen; type: cell-based, human; details: one dose 10 μM
HCT-116 (colon cancer) = test: NCI 60-cell one-dose antiproliferative screen; type: cell-based, human; details: one dose 10 μM
UACC-257 (melanoma) = test: NCI 60-cell one-dose antiproliferative screen; type: cell-based, human; details: one dose 10 μM
IGROV1 (ovarian cancer) = test: NCI 60-cell one-dose antiproliferative screen; type: cell-based, human; details: one dose 10 μM
[2] = tested on: NCI-H226 (NSC lung cancer); test: NCI 60-cell one-dose antiproliferative screen; type: cell-based, human; details: one dose 10 μM
SNB-19 (CNS cancer) = test: NCI 60-cell one-dose antiproliferative screen; type: cell-based, human; details: one dose 10 μM
[3] = tested on: MDA-MB-231/ATCC (breast cancer); test: NCI 60-cell one-dose antiproliferative screen; type: cell-based, human; details: one dose 10 μM
SK-MEL-28 (melanoma) = test: NCI 60-cell one-dose antiproliferative screen; type: cell-based, human; details: one dose 10 μM
TK-10 (renal cancer) = test: NCI 60-cell one-dose antiproliferative screen; type: cell-based, human; details: one dose 10 μM
OVCAR-8 (ovarian cancer) = test: NCI 60-cell one-dose antiproliferative screen; type: cell-based, human; details: one dose 10 μM
SNB-75 (CNS cancer) = test: NCI 60-cell one-dose antiproliferative screen; type: cell-based, human; details: one dose 10 μM
[4] = tested on: NCI/ADR-RES (ovarian cancer); test: NCI 60-cell one-dose antiproliferative screen; type: cell-based, human; details: one dose 10 μM
OVCAR-3 (ovarian cancer) = test: NCI 60-cell one-dose antiproliferative screen; type: cell-based, human; details: one dose 10 μM
HT29 (colon cancer) = test: NCI 60-cell one-dose antiproliferative screen; type: cell-based, human; details: one dose 10 μM
ACHN (renal cancer) = test: NCI 60-cell one-dose antiproliferative screen; type: cell-based, human; details: one dose 10 μM
LOX IMIV (melanoma) = test: NCI 60-cell one-dose antiproliferative screen; type: cell-based, human; details: one dose 10 μM
CCRF-CEM (leukemia) = test: NCI 60-cell one-dose antiproliferative screen; type: cell-based, human; details: one dose 10 μM
T-47D (breast cancer) = test: NCI 60-cell one-dose antiproliferative screen; type: cell-based, human; details: one dose 10 μM
[5] = tested on: NCI-H23 (NSC lung cancer); test: NCI 60-cell one-dose antiproliferative screen; type: cell-based, human; details: one dose 10 μM
U251 (CNS cancer) = test: NCI 60-cell one-dose antiproliferative screen; type: cell-based, human; details: one dose 10 μM
[6] = tested on: NCI-H460 (NSC lung cancer); test: NCI 60-cell one-dose antiproliferative screen; type: cell-based, human; details: one dose 10 μM
UACC-62 (melanoma) = test: NCI 60-cell one-dose antiproliferative screen; type: cell-based, human; details: one dose 10 μM
[7] = tested on: NCI-H322M (NSC lung cancer); test: NCI 60-cell one-dose antiproliferative screen; type: cell-based, human; details: one dose 10 μM
[8] = tested on: 60 human tumor cell lines; test: NCI 60-cell one-dose antiproliferative screen, whole panel; type: cell-based; details: Homo sapiens, 60 cell, read-out: Mean inhibition (mean GI%)
HOP-92 (NSC lung cancer) = test: NCI 60-cell one-dose antiproliferative screen; type: cell-based, human; details: one dose 10 μM
786-0 (renal cancer) = test: NCI 60-cell one-dose antiproliferative screen; type: cell-based, human; details: one dose 10 μM
SF-295 (CNS cancer) = test: NCI 60-cell one-dose antiproliferative screen; type: cell-based, human; details: one dose 10 μM
[9] = tested on: NCI-H522 (NSC lung cancer); test: NCI 60-cell one-dose antiproliferative screen; type: cell-based, human; details: one dose 10 μM
EKVX (NSC lung cancer) = test: NCI 60-cell one-dose antiproliferative screen; type: cell-based, human; details: one dose 10 μM
SF-268 (CNS cancer) = test: NCI 60-cell one-dose antiproliferative screen; type: cell-based, human; details: one dose 10 μM
DU-145 (prostate cancer) = test: NCI 60-cell one-dose antiproliferative screen; type: cell-based, human; details: one dose 10 μM
PC-3 (prostate cancer) = test: NCI 60-cell one-dose antiproliferative screen; type: cell-based, human; details: one dose 10 μM
RPMI-8226 (leukemia) = test: NCI 60-cell one-dose antiproliferative screen; type: cell-based, human; details: one dose 10 μM
SN12C (renal cancer) = test: NCI 60-cell one-dose antiproliferative screen; type: cell-based, human; details: one dose 10 μM
SW-620 (colon cancer) = test: NCI 60-cell one-dose antiproliferative screen; type: cell-based, human; details: one dose 10 μM
MDA-MB-435 (melanoma) = test: NCI 60-cell one-dose antiproliferative screen; type: cell-based, human; details: one dose 10 μM
SK-MEL-2 (melanoma) = test: NCI 60-cell one-dose antiproliferative screen; type: cell-based, human; details: one dose 10 μM
A498 (renal cancer) = test: NCI 60-cell one-dose antiproliferative screen; type: cell-based, human; details: one dose 10 μM
SK-OV-3 (ovarian cancer) = test: NCI 60-cell one-dose antiproliferative screen; type: cell-based, human; details: one dose 10 μM
HOP-62 (NSC lung cancer) = test: NCI 60-cell one-dose antiproliferative screen; type: cell-based, human; details: one dose 10 μM
UO-31 (renal cancer) = test: NCI 60-cell one-dose antiproliferative screen; type: cell-based, human; details: one dose 10 μM
HCT-15 (colon cancer) = test: NCI 60-cell one-dose antiproliferative screen; type: cell-based, human; details: one dose 10 μM
HS 578T (breast cancer) = test: NCI 60-cell one-dose antiproliferative screen; type: cell-based, human; details: one dose 10 μM
RXF 393 (renal cancer) = test: NCI 60-cell one-dose antiproliferative screen; type: cell-based, human; details: one dose 10 μM
[10] = tested on: MDA-MB-468 (breast cancer); test: NCI 60-cell one-dose antiproliferative screen; type: cell-based, human; details: one dose 10 μM

SMILES: COc1ccc(-c2nnc3ccc(NNC(C)=O)nn23)cc1 [Compound 6b, N′-(3-(4-methoxyphenyl)-[1,2,4]triazolo[4,3-b]pyridazin-6-yl)acetohydrazide]
- GI% (M14 (melanoma)): — (— GI% is below 15%)
- GI% (SF-539 (CNS cancer)): — (— GI% is below 15%)
- GI% (CAKI-1 (renal cancer)): — (— GI% is below 15%)
- GI% (HCC-2998 (colon cancer)): — (— GI% is below 15%)
- GI% (OVCAR-5 (ovarian cancer)): — (— GI% is below 15%)
- GI% (COLO-205 (colon cancer)): — (— GI% is below 15%)
- GI% (MALME-3M (melanoma)): — (— GI% is below 15%)
- GI% (MCF7 (breast cancer)): — (— GI% is below 15%)
- GI% [1]: — (— GI% is below 15%)
- GI% (KM12 (colon cancer)): — (— GI% is below 15%)
- GI% (OVCAR-4 (ovarian cancer)): — (— GI% is below 15%)
- GI% (HCT-116 (colon cancer)): — (— GI% is below 15%)
- GI% (UACC-257 (melanoma)): — (— GI% is below 15%)
- GI% (IGROV1 (ovarian cancer)): — (— GI% is below 15%)
- GI% [2]: — (— GI% is below 15%)
- GI% (SNB-19 (CNS cancer)): — (— GI% is below 15%)
- GI% [3]: — (— GI% is below 15%)
- GI% (SK-MEL-28 (melanoma)): — (— GI% is below 15%)
- GI% (TK-10 (renal cancer)): — (— GI% is below 15%)
- GI% (OVCAR-8 (ovarian cancer)): — (— GI% is below 15%)
- GI% (SNB-75 (CNS cancer)): — (— GI% is below 15%)
- GI% [4]: — (— GI% is below 15%)
- GI% (OVCAR-3 (ovarian cancer)): — (— GI% is below 15%)
- GI% (HT29 (colon cancer)): — (— GI% is below 15%)
- GI% (ACHN (renal cancer)): — (— GI% is below 15%)
- GI% (LOX IMIV (melanoma)): — (— GI% is below 15%)
- GI% (CCRF-CEM (leukemia)): — (— GI% is below 15%)
- GI% (T-47D (breast cancer)): — (— GI% is below 15%)
- GI% [5]: — (— GI% is below 15%)
- GI% (U251 (CNS cancer)): — (— GI% is below 15%)
- GI% [6]: — (— GI% is below 15%)
- GI% (UACC-62 (melanoma)): — (— GI% is below 15%)
- GI% [7]: — (— GI% is below 15%)
- inhibition at 10 µM [8]: < 0%
- GI% (HOP-92 (NSC lung cancer)): — (— GI% is below 15%)
- GI% (786-0 (renal cancer)): — (— GI% is below 15%)
- GI% (SF-295 (CNS cancer)): — (— GI% is below 15%)
- GI% [9]: — (— GI% is below 15%)
- GI% (EKVX (NSC lung cancer)): — (— GI% is below 15%)
- GI% (SF-268 (CNS cancer)): — (— GI% is below 15%)
- GI% (DU-145 (prostate cancer)): — (— GI% is below 15%)
- GI% (PC-3 (prostate cancer)): — (— GI% is below 15%)
- GI% (RPMI-8226 (leukemia)): — (— GI% is below 15%)
- GI% (SN12C (renal cancer)): — (— GI% is below 15%)
- GI% (SW-620 (colon cancer)): — (— GI% is below 15%)
- GI% (MDA-MB-435 (melanoma)): — (— GI% is below 15%)
- GI% (SK-MEL-2 (melanoma)): — (— GI% is below 15%)
- GI% (A498 (renal cancer)): — (— GI% is below 15%)
- GI% (SK-OV-3 (ovarian cancer)): — (— GI% is below 15%)
- GI% (HOP-62 (NSC lung cancer)): — (— GI% is below 15%)
- GI% (UO-31 (renal cancer)): — (— GI% is below 15%)
- GI% (HCT-15 (colon cancer)): — (— GI% is below 15%)
- GI% (HS 578T (breast cancer)): — (— GI% is below 15%)
- GI% (RXF 393 (renal cancer)): — (— GI% is below 15%)
- GI% [10]: — (— GI% is below 15%)
